The source of these data is patent US20180148418A1, “AMIDO-SUBSTITUTED CYCLOHEXANE DERIVATIVES” (Bayer Pharma Aktiengesellschaft, priority 2015, published 2018).

For assay [1], the system named is wildtype Wnt signaling cascade. Description: HEK293 TOP assay (Super TopFlash luciferase reporter, Wnt-3a stimulated). Particulars: Homo sapiens, HEK293, 16 h, HEK293 TOP reporter cells, Wnt3a at EC50, 16 hours. The class given is cell-based. In outline:
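HEK293 cells stably carrying Super TopFlash (TOP) run in parallel with FOP cells, 10000/well plated 24 h ahead, stimulated with recombinant human Wnt-3a. Compounds tested 50 μM to 15 nM in 3.16-fold steps in CAFTY buffer pH 7.4 with 2 mM Ca^2+ and 0.01% BSA; luciferase read-out.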

Assay [2] deals with T1, TNKS2 (Homo sapiens, UniProt Q9H2K2).
T1 construct: purchased BPS Bioscience, San Diego, USA 80572 (TNKS2 Histone Ribosylation Assay Kit)
T1 sequence (Q9H2K2 1-1166): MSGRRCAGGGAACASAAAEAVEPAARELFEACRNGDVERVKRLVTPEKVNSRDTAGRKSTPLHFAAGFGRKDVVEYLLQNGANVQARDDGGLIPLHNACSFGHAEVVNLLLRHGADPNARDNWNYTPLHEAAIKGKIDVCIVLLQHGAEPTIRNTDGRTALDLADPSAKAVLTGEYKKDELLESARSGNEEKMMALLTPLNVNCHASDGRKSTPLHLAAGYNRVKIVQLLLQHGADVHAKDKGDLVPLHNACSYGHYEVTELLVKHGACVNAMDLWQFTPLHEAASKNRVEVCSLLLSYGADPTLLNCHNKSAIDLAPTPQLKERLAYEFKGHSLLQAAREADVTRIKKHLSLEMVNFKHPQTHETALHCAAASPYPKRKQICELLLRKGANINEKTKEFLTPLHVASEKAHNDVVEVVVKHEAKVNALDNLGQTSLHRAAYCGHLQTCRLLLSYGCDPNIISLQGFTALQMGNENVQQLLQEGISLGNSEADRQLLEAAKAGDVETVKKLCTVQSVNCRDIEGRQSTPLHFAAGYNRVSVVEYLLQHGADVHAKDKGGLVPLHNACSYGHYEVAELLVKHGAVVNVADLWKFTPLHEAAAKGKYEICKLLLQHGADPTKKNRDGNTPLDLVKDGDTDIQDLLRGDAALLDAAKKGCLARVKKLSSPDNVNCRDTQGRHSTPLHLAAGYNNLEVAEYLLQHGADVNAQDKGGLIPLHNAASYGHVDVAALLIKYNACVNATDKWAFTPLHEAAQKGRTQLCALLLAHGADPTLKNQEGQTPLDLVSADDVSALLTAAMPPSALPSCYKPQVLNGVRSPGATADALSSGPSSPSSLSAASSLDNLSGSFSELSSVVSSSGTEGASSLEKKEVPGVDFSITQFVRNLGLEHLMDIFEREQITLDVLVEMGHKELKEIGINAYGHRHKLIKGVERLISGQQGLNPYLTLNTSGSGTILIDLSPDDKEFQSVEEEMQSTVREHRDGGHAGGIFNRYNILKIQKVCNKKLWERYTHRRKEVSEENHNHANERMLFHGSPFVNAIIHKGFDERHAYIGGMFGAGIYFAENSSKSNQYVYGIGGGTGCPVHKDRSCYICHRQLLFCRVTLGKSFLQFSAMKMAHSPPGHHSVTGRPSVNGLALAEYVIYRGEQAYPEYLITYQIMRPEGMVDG
Description: TNKS2 Assay B (auto-parsylation, [3H]-NAD+ SPA). Particulars: 6 nM TNKS2, auto-parsylation, over night at room temperature. The class given is biochemical.

SMILES strings stand for the structures.

With `CNC(=O)c1nc[nH]c1C(=O)N[C@H]1CC[C@H](C(=O)N(C)c2ccc(F)cc2)CC1` [Example 172, N^5-{trans-4-[(4-fluorophenyl)(methyl)carbamoyl]cyclohexyl}-N^4-methyl-1H-imidazole-4,5-dicarboxamide], the IC50 in assay [1] turned out to be 410 nM; in assay [2], 510 nM.

With `CNC(=O)c1nc[nH]c1C(=O)N[C@H]1CC[C@H](C(=O)N(C)c2ccccc2)CC1` [Example 171, N^4-methyl-N^5-{trans-4-[methyl(phenyl)carbamoyl]cyclohexyl}-1H-imidazole-4,5-dicarboxamide], the results for the IC50 in assay [1] and in assay [2] were 450 nM and 150 nM, respectively.

Regarding `CCNC(=O)c1nc[nH]c1C(=O)N[C@H]1CC[C@@]2(CCN(c3cc(F)c(F)cc3Cl)C2=O)CC1` [Example 197, N^5-[(trans)-2-(2-chloro-4,5-difluorophenyl)-1-oxo-2-azaspiro[4.5]dec-8-yl]-N^4-ethyl-1H-imidazole-4,5-dicarboxamide], the IC50 worked out at 0.74 nM in assay [1] and 2.1 nM in assay [2].

Regarding `CNC(=O)c1[nH]cnc1C(=O)N[C@H]1CC[C@@]2(CCN(c3ccc(F)cc3)C2=O)CC1` [Example 212, N^4-[(trans)-2-(4-fluorophenyl)-1-oxo-2-azaspiro[4.5]dec-8-yl]-N^5-methyl-1H-imidazole-4,5-dicarboxamide], the IC50 in assay [1] was 88 nM; in assay [2], 290 nM.

For the compound `O=C(NCCN1CCOCC1)c1nc[nH]c1C(=O)N[C@H]1CC[C@H](C(=O)Nc2ccc(F)cc2Cl)CC1` [Example 13, N^5-{trans-4-[(2-chloro-4-fluorophenyl)carbamoyl]cyclohexyl}-N^4-[2-(morpholin-4-yl)ethyl]-1H-imidazole-4,5-dicarboxamide], the values for the IC50 in assay [1] and in assay [2] were 95 nM and 19 nM, respectively.

For `CNC(=O)c1nc[nH]c1C(=O)N[C@H]1CC[C@H](C(=O)Nc2cc(C(C)(C)O)ccc2Cl)CC1` [Example 170, N^5-(trans-4-{[2-chloro-5-(2-hydroxypropan-2-yl)phenyl]carbamoyl}cyclohexyl)-N^4-methyl-1H-imidazole-4,5-dicarboxamide], the IC50 in assay [1] worked out at 2000 nM; in assay [2] it was 1500 nM.

For `CN1CC(NC(=O)c2nc[nH]c2C(=O)N[C@H]2CC[C@@]3(CCN(c4ccc(F)cc4Cl)C3=O)CC2)C1` [Example 187, N^5-[(trans)-2-(2-chloro-4-fluorophenyl)-1-oxo-2-azaspiro[4.5]dec-8-yl]-N^4-(1-methylazetidin-3-yl)-1H-imidazole-4,5-dicarboxamide], the IC50 is 5.9 nM in assay [1] and 4.3 nM in assay [2].

`O=C(NC1CC1)c1nc[nH]c1C(=O)N[C@H]1CC[C@H](C(=O)Nc2ccc(F)cc2Cl)CC1` [Example 17, N^5-{trans-4-[(2-chloro-4-fluorophenyl)carbamoyl]cyclohexyl}-N^4-cyclopropyl-1H-imidazole-4,5-dicarboxamide]: the IC50 was determined as 49 nM in assay [1] and 90 nM in assay [2].

Turning to `O=C(N[C@H]1CC[C@@]2(CCN(c3ccc(F)cc3Cl)C2=O)CC1)c1[nH]cnc1C(=O)N1CCN(CC(F)(F)F)CC1` [Example 167, N-[(trans)-2-(2-chloro-4-fluorophenyl)-1-oxo-2-azaspiro[4.5]dec-8-yl]-4-{[4-(2,2,2-trifluoroethyl)piperazin-1-yl]carbonyl}-1H-imidazole-5-carboxamide], the half-inhibitory concentration (IC50) in assay [1] was found to be 130 nM; in assay [2], 270 nM.

As to `O=C(N[C@H]1CC[C@@]2(CCN(c3ccc(F)cc3Cl)C2=O)CC1)c1cnn2c(C(F)(F)F)ccnc12` [Example 233, N-[(trans)-2-(2-chloro-4-fluorophenyl)-1-oxo-2-azaspiro[4.5]dec-8-yl]-7-(trifluoromethyl)pyrazolo[1,5-a]pyrimidine-3-carboxamide], the IC50 in assay [1] was found to be 9 nM; in assay [2], 25 nM.

For `CC(C)NC(=O)c1nc[nH]c1C(=O)N[C@H]1CC[C@@]2(CCN(c3cccc(Cl)c3)C2=O)CC1` [Example 278, N^5-[(trans)-2-(3-chlorophenyl)-1-oxo-2-azaspiro[4.5]dec-8-yl]-N^4-(propan-2-yl)-1H-imidazole-4,5-dicarboxamide], the 50% inhibitory concentration (IC50) in assay [1] came to 90 nM; in assay [2], 170 nM.
